These results are taken from ChEMBL document CHEMBL5465560, “Selectivity Literature for EUbOPEN Chemogenomic Library” (2024).

Assay [1] addresses T1, Muscle, skeletal receptor tyrosine-protein kinase (Homo sapiens) (UniProt O15146).
T1 sequence (whole entry): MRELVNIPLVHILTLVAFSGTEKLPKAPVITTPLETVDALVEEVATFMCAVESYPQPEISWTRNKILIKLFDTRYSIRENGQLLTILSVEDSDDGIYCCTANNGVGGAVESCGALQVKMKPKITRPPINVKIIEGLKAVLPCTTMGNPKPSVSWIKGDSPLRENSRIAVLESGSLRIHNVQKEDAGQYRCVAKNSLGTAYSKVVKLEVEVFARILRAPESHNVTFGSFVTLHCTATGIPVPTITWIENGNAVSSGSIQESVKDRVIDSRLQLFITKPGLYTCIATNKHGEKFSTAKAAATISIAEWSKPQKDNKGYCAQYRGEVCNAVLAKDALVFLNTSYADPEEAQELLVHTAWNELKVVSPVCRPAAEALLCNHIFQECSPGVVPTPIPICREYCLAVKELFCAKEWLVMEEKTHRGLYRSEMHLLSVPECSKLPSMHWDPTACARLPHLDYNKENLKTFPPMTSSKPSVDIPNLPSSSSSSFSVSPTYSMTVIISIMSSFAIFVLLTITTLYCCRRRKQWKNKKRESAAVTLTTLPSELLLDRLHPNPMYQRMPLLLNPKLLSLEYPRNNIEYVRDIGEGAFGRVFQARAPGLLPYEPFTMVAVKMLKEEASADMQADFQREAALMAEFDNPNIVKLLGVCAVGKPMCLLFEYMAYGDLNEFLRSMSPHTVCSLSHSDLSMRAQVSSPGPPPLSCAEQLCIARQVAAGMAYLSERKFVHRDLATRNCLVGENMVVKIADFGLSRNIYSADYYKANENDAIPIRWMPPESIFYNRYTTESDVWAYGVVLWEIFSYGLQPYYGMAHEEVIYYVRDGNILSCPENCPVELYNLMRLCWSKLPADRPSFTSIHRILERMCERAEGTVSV
Kind of assay: Selectivity interaction (Ambit KINOMEscan and KiNATiv profiling in Jurkat cells) EUB0000090b MUSK. The class given is cell-based. As to conditions: at 1 µM.

The target of assay [2] is Dual specificity protein kinase CLK3 (Homo sapiens, UniProt P49761). Briefly: Selectivity interaction (KinomeScan (DiscoverX)) EUB0000092b CLK3. As to conditions: at 10 µM.
Chain of Dual specificity protein kinase CLK3 (P49761 whole entry, looked up): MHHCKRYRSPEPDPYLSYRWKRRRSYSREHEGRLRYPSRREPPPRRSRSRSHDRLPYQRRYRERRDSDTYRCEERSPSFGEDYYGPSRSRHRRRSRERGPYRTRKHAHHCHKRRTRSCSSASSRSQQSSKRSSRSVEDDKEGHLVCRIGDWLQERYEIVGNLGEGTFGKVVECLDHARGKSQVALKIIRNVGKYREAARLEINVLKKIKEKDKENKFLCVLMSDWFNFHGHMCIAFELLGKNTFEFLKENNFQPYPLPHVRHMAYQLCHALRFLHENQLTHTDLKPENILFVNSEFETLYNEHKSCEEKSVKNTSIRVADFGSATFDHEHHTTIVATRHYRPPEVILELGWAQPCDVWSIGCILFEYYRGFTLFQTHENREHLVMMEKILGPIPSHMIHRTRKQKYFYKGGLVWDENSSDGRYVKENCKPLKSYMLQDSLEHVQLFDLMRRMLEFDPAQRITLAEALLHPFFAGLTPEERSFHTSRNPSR
Assay [3] concerns the target Calcium/calmodulin-dependent protein kinase kinase 2 (Homo sapiens) (UniProt Q96RR4). Briefly: Selectivity interaction (KinomeScan (DiscoverX)) EUB0000607a CAMKK2. As to conditions: at 10 µM.
The target of assay [4] is T2, Mitogen-activated protein kinase kinase kinase 3 (Homo sapiens) (UniProt Q99759).
T2 sequence (whole entry): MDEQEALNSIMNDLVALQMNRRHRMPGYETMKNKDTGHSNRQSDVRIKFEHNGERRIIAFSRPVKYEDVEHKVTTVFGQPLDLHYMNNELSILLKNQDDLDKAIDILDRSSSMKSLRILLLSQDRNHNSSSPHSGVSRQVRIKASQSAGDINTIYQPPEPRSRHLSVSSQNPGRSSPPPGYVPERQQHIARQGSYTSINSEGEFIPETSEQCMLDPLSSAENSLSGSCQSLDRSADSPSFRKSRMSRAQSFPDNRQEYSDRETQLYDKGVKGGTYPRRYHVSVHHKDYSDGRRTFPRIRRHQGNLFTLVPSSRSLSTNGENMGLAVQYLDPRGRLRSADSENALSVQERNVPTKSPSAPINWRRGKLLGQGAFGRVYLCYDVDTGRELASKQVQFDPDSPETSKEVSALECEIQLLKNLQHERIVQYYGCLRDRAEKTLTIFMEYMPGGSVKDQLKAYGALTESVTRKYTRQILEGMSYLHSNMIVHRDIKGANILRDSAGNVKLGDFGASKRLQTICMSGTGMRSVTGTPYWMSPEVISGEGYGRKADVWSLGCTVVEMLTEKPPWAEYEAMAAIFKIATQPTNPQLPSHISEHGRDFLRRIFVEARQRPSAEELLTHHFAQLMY
Kind of assay: Selectivity interaction (ActivX KiNativ screen (kinase selectivity in THP-1 cell lysates)) EUB0000639a MAP3K3. To be noted: lysate, at 0.04 µM. It is filed as subcellular.

The target of assay [5] is Ribosomal protein S6 kinase alpha-2 (Homo sapiens) (UniProt Q15349). Briefly: Selectivity interaction (ActivX KiNativ screen (kinase selectivity in THP-1 cell lysates)) EUB0000639a RPS6KA2. It is filed as subcellular. To be noted: lysate, at 0.2 µM.
Chain of Ribosomal protein S6 kinase alpha-2 (Homo sapiens) (Q15349 whole entry): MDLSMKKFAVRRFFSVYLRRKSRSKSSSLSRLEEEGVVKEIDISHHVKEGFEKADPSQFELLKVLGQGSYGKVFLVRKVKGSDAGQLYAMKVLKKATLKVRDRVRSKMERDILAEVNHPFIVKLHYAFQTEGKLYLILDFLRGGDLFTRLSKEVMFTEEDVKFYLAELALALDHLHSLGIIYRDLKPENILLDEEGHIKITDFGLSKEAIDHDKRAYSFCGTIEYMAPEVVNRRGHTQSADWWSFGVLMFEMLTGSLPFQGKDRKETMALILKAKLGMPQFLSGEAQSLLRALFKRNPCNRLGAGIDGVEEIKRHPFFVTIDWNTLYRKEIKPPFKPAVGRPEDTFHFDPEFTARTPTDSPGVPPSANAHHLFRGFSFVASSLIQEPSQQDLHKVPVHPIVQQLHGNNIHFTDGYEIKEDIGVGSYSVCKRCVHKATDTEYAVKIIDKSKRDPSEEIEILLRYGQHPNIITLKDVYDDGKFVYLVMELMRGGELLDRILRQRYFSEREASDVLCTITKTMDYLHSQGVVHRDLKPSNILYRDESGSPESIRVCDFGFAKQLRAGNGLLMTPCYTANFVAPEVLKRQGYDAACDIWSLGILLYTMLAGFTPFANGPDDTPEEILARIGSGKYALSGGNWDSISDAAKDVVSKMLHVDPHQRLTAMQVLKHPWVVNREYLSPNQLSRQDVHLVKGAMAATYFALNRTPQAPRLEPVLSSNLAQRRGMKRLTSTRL
For assay [6], the target named is T3, MAP/microtubule affinity-regulating kinase 4 (Homo sapiens) (UniProt Q96L34).
T3 sequence (whole entry): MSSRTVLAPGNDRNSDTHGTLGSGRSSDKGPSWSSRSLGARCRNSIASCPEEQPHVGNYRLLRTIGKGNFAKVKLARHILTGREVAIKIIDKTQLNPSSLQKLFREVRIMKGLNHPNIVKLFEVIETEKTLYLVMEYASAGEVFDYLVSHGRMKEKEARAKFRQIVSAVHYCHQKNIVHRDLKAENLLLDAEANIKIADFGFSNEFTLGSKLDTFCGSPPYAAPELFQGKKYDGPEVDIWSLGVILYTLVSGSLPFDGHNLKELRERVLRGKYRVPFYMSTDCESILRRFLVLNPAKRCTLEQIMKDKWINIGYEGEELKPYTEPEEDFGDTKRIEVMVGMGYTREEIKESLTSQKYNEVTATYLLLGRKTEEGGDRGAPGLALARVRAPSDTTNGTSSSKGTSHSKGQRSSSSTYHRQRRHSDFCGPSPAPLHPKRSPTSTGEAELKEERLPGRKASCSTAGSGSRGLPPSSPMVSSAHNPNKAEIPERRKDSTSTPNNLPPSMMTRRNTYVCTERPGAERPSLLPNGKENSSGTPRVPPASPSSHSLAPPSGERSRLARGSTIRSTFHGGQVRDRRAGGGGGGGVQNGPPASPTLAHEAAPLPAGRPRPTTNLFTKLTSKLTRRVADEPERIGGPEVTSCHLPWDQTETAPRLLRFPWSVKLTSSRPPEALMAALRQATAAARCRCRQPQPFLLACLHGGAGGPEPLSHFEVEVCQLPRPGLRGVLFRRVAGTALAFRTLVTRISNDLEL
Briefly: Selectivity interaction (KinomeScan (DiscoverX)) EUB0000595a MARK4. To be noted: at 10 µM.

The structures appear in SMILES notation.

Chain of Calcium/calmodulin-dependent protein kinase kinase 2 (Homo sapiens) (Q96RR4 2-588 limits assumed): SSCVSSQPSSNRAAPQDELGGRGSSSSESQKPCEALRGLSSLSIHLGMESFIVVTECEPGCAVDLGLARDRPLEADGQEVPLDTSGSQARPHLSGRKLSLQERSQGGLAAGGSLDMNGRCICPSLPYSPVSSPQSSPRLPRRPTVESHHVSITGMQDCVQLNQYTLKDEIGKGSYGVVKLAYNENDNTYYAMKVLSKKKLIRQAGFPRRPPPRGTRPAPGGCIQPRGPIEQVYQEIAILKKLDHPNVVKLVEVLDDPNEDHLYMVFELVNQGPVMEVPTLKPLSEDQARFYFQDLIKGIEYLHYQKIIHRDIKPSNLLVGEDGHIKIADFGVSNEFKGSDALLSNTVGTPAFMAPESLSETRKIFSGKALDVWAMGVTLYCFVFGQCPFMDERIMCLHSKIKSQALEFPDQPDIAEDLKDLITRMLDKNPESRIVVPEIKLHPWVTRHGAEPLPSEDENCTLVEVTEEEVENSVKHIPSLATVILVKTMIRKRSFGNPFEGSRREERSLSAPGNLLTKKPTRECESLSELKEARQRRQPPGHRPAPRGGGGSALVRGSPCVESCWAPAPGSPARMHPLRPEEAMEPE

In the case of `CN(C)C/C=C/C(=O)Nc1ccc(C(=O)N2CCCC(Nc3ncc(Cl)c(-c4c[nH]c5ccccc45)n3)C2)cc1` (stereo unspecified), the % of control in assay [1] was 96%.

For `CCC(=O)N1CCN(c2ccc(-n3c(=O)ccc4cnc5ccc(-c6cnc7ccccc7c6)cc5c43)cc2C(F)(F)F)CC1`, the % of control in assay [2] was determined as 43%.

On to `CNC(=O)Nc1ccc(-c2nc(N3CC4CCC(C3)O4)c3cnn(C4CCC5(CC4)OCCO5)c3n2)cc1`, for which the % of control in assay [3] amounted to 100%.

Regarding `CC[C@@H]1[C@H](F)C(=O)N[C@@H]1COc1nccc2cc(C(N)=O)c(OC)cc12` [ZIMLOVISERTIB], the results for the % of inhibition in assay [4] and in assay [5] were 8.3% and 2.6%, respectively.

The compound `COCC(=O)NC/C=C/c1ccc2ncnc(Nc3ccc(Oc4ccc(C)nc4)c(C)c3)c2c1` [CP-724714] gave a % of control in assay [6] of 100%.
